Experimental data from patent US6410054B1, “Immediate release eplerenone compositions” (G. D. Searle & Co., priority 1998, dated 2002).

Assay: Single dose study: plasma pharmacokinetics of eplerenone, open lactone ring form, spironolactone
Conditions: for Plasma Concentration Of Eplerenone: -0.25 h (predose); for Oral Clearance: eplerenone in plasma; for concentration at 12 h / AUC(0-t) / Cmax / MRT / Tmax / concentration at 0.5 h / concentration at 1 h / concentration at 2 h / concentration at 3 h / concentration at 4 h / concentration at 6 h / concentration at 8 h / concentration at 16 h / concentration at 24 h / concentration at 28 h / concentration at 32 h / concentration at 48 h / concentration at 72 h / concentration at 96 h / half-life: male, human, po
Protocol: The pharmacokinetics, safety and antialdosterone activity of single 10, 50, 100, 300 and 1000 mg oral doses of eplerenone were evaluated in a single-center, randomized, double-blind, placebo-controlled study.
The study employed seven parallel dose groups of eight healthy male humans.
The eplerenone capsules administered corresponded to the capsules (or combinations of the capsules) disclosed in Examples 4, 5, 7 and 8 above. The placebo was a conventional capsule containing lactose. […] The fludrocortisone used in the study consisted of commercially available fludrocortisone tablets (Florinef®, Squibb BV).
The subjects, who underwent a ten hour food fast prior to administration of the dose, received a single oral dose of one of the study medications together with about 180 mL of water at 0800 hours. […] Each dose of fludrocortisone was administered with 150 mL of water except for the 1.0 mg dose which was administered with 200 mL of water.
The plasma samples collected from subjects dosed with eplerenone were assayed for concentrations of eplerenone and the open lactone ring form of eplerenone. […] A subset of plasma samples was also assayed for testosterone levels. The urine collected was analyzed to determine concentrations and amounts of eplerenone and the open lactone ring form of eplerenone, the amount of sodium and potassium excreted, and the urinary log10 (sodium/potassium) ratio.

## COC(=O)C1CC2=CC(=O)CCC2(C)C23OC2CC2(C)C(CC[C@@]24CCC(=O)O4)C13 (stereo partly drawn) [eplerenone, methyl hydrogen 9,11α-epoxy-17α-hydroxy-3-oxopregn-4-ene-7α,21-dicarboxylate, γ-lactone]
10 mg single oral dose
  Plasma Concentration Of Eplerenone: 0 ng/mL
  Oral Clearance: 13.3 L/h
50 mg single oral dose
  Plasma Concentration Of Eplerenone: 0 ng/mL
  Oral Clearance: 13.7 L/h
100 mg single oral dose
  Plasma Concentration Of Eplerenone: 0 ng/mL
  Oral Clearance: 13.1 L/h
300 mg single oral dose
  Plasma Concentration Of Eplerenone: 0 ng/mL
  Oral Clearance: 17.6 L/h
1000 mg single oral dose
  Plasma Concentration Of Eplerenone: 0 ng/mL
  Oral Clearance: 18.4 L/h
In vivo, 50 mg
  concentration at 12 h: 49.4 ng/mL
plasma, 10 mg
  AUC(0-t): 942 ng·h/mL
  Cmax: 191 ng/mL
  MRT: 3.9 h
  Tmax: 1.3 h
  concentration at 0.5 h: 130 ng/mL
  concentration at 1 h: 177 ng/mL
  concentration at 2 h: 159 ng/mL
  concentration at 3 h: 125 ng/mL
  concentration at 4 h: 106 ng/mL
  concentration at 6 h: 65.3 ng/mL
  concentration at 8 h: 34.4 ng/mL
  concentration at 12 h: 6 ng/mL
  concentration at 16 h: 6 ng/mL
  concentration at 24 h: 1.7 ng/mL
  concentration at 28 h: 0 ng/mL
  concentration at 32 h: 0 ng/mL
  concentration at 48 h: 0 ng/mL
  concentration at 72 h: 0 ng/mL
  concentration at 96 h: 0 ng/mL
  half-life: 2.1 h
plasma, 50 mg
  AUC(0-t): 4020 ng·h/mL
  Cmax: 797 ng/mL
  MRT: 4.2 h
  Tmax: 1.4 h
  concentration at 0.5 h: 552 ng/mL
  concentration at 1 h: 721 ng/mL
  concentration at 2 h: 693 ng/mL
  concentration at 3 h: 592 ng/mL
  concentration at 4 h: 457 ng/mL
  concentration at 6 h: 270 ng/mL
  concentration at 8 h: 146 ng/mL
  concentration at 16 h: 18.3 ng/mL
  concentration at 24 h: 3 ng/mL
  concentration at 28 h: 1.8 ng/mL
  concentration at 32 h: 0 ng/mL
  concentration at 48 h: 0 ng/mL
  concentration at 72 h: 0 ng/mL
  concentration at 96 h: 0 ng/mL
  half-life: 2.9 h
plasma, 100 mg
  AUC(0-t): 7940 ng·h/mL
  Cmax: 1500 ng/mL
  MRT: 4.9 h
  Tmax: 1.5 h
  concentration at 0.5 h: 758 ng/mL
  concentration at 1 h: 1220 ng/mL
  concentration at 2 h: 1360 ng/mL
  concentration at 3 h: 1110 ng/mL
  concentration at 4 h: 900 ng/mL
  concentration at 6 h: 558 ng/mL
  concentration at 8 h: 275 ng/mL
  concentration at 12 h: 124 ng/mL
  concentration at 16 h: 41.9 ng/mL
  concentration at 24 h: 13.1 ng/mL
  concentration at 28 h: 6.1 ng/mL
  concentration at 32 h: 3 ng/mL
  concentration at 48 h: 0 ng/mL
  concentration at 72 h: 0 ng/mL
  concentration at 96 h: 0 ng/mL
